Assay results reported in patent US8569302B2, “Inhibitors of flaviviridae viruses” (Gilead Sciences, Inc., priority 2009, dated 2013).

The molecules below were run on human hepatoma Huh-7 cell line harboring a HCV replicon (assay: HCV replicon assay (inhibition of viral replication, luciferase readout)). Settings: Hepatitis C virus, 72 h, Huh-7 HCV replicon cells, 3 days incubation.
Assay type: cell-based
Description: The anti-HCV activity of the compounds of this invention was tested in a human hepatoma Huh-7 cell line harboring a HCV replicon. The assay comprised the following steps:
Step 1: Compound Preparation and Serial Dilution.
Serial dilution was performed in 100% DMSO in a 384-well plate. A solution containing a compound at 225-fold concentration of the starting final serial dilution concentration was prepared in 100% DMSO and 15 μL added to the pre-specified wells in column 3 or 13 of a polypropylene 384-well plate. The rest of the 384-well plate was filled with 10 μL 100% DMSO except for columns 23 and 24, where 10 μL of 500 μM a HCV protease inhibitor (ITMN-191) in 100% DMSO was added. The HCV protease inhibitor was used a control of 100% inhibition of HCV replication. The plate was then placed on a Biomek FX Workstation to start the serial dilution. The serial dilution was performed for ten cycles of 3-fold dilution from column 3 to 12 or from column 13 to 22.
Step 2: Cell Culture Plate Preparation and Compound Addition
To each well of a black polypropylene 384-well plate, 90 μL of cell media containing 1600 suspended Huh-7 HCV replicon cells was added with a Biotek uFlow Workstation. A volume of 0.4 μL of the compound solution was transferred from the serial dilution plate to the cell culture plate on a Biomek FX Workstation. The DMSO concentration in the final assay condition was 0.44%. The plates were incubated for 3 days at 37° C. with 5% CO2 and 85% humidity.
Step 3: Detection of Cytotoxicity and Inhibition of Viral Replication
a) Assessment of cytotoxicity: The media in the 384-well cell culture plate was aspirated with a Biotek EL405 plate-washer. A volume of 50 μL of a solution containing 400 nM Calcein AM in 100% PBS was added to each well of the plate with a Biotek uFlow Workstation. The plate was incubated for 30 minutes at room temperature before the fluorescence signal ([…]) was measured with a Perkin Elmer Envision Plate Reader.
b) Assessment of inhibition of viral replication: The calcein-PBS solution in the 384-well cell culture plate was aspirated with a Biotek EL405 plate-washer. A volume of 20 μL of Dual-Glo luciferase buffer (Promega, Dual-Glo Luciferase Assay Reagent, cat. #E298B) was added to each well of the plate with a Biotek uFlow Workstation. The plate was incubated for 10 minutes at room temperature. A volume of 20 μL of a solution containing 1:100 mixture of Dual-Glo Stop & Glo substrate (Promega, Dual-Glo Luciferase Assay Reagent, cat. #E313B) and Dual-Glo Stop & Glo buffer (Promega, Dual-Glo Luciferase Assay Reagent, cat. #E314B) was then added to each well of the plate with a Biotek uFlow Workstation. The plate was incubated at room temperature for 10 minutes before the luminescence signal was measured with a Perkin Elmer Envision Plate Reader.
The percent cytotoxicity was determined by calcein AM conversion to fluorescent product. The average fluorescent signal from the DMSO control wells was defined as 100% nontoxic. The individual fluorescent signal from testing compound treated well was divided by the average signal from DMSO control wells and then multiplied by 100% to get the percent viability. The percent anti-HCV replication activity was determined by the luminescence signal from the testing well compared to DMSO control wells. The background signal was determined by the average luminescence signal from the HCV protease inhibitor treated wells and was subtracted from the signal from the testing wells as well as the DMSO control wells. Following 3-fold serial dilutions, the EC50 and CC50 values were calculated by fitting % inhibition at each concentration to the following equation: % inhibition=100%/[EC50/[I])^b+1]
Where b is Hill's coefficient. See, for reference, Hill, A. V., The Possible Effects of the Aggregation of the Molecules of Hæmoglobin on its Dissociation Curves, J. Physiol. 40: iv-vii. (1910). […]

Row | Structure (SMILES) | inhibition at 2 µM
1 | Cc1ccc(O[C@H]2CC[C@H](N(c3cc(C#CC(C)(C)C)sc3C(=O)O)C(=O)[C@H]3CC[C@H](C)CC3)CC2)nc1 [Compound 11, 5-(3,3-Dimethyl-but-1-ynyl)-3-{(trans-4-methyl-cyclohexanecarbonyl)-[trans-4-(5-methyl-pyridin-2-yloxy)-cyclohexyl]-amino}-thiophene-2-carboxylic acid] | 99.9%
2 | Cc1cccnc1O[C@H]1CC[C@H](N(c2cc(C#CC(C)(C)C)sc2C(=O)O)C(=O)[C@H]2CC[C@H](C)CC2)CC1 [Compound 12, 5-(3,3-Dimethyl-but-1-ynyl)-3-{(trans-4-methyl-cyclohexanecarbonyl)-[trans-4-(3-methyl-pyridin-2-yloxy)-cyclohexyl]-amino}-thiophene-2-carboxylic acid] | 99.7%
3 | CC(C)(C)C#Cc1cc(N(C(=O)[C@H]2CC[C@H](C)CC2)[C@H]2CC[C@H](Oc3cccc(C#N)n3)CC2)c(C(=O)O)s1 [Compound 13, 3-[[trans-4-(6-Cyano-pyridin-2-yloxy)-cyclohexyl]-(trans-4-methyl-cyclohexanecarbonyl)-amino]-5-(3,3-dimethyl-but-1-ynyl)-thiophene-2-carboxylic acid] | 99.3%
4 | CC(C)(C)C#Cc1cc(N(C(=O)[C@H]2CC[C@H](C)CC2)[C@H]2CC[C@H](Oc3ccc(=O)[nH]n3)CC2)c(C(=O)O)s1 [Compound 14, 5-(3,3-Dimethyl-but-1-ynyl)-3-{(trans-4-methyl-cyclohexanecarbonyl)-[trans-4-(6-oxo-1,6-dihydropyridazin-3-yloxy)-cyclohexyl]-amino}-thiophene-2-carboxylic acid] | 100%
5 | CC(C)(C)C#Cc1cc(N(C(=O)[C@H]2CC[C@H](C)CC2)[C@H]2CC[C@H](Oc3nccs3)CC2)c(C(=O)O)s1 [Compound 15, 5-(3,3-Dimethyl-but-1-ynyl)-3-{(trans-4-methyl-cyclohexanecarbonyl)-[trans-4-(thiazol-2-yloxy)-cyclohexyl]-amino}-thiophene-2-carboxylic acid] | 99.6%
6 | CC(C)(C)C#Cc1cc(N(C(=O)[C@H]2CC[C@H](C)CC2)[C@H]2CC[C@H](Oc3ncccc3C(F)(F)F)CC2)c(C(=O)O)s1 [Compound 16, 5-(3,3-Dimethyl-but-1-ynyl)-3-{(trans-4-methyl-cyclohexanecarbonyl)-[trans-4-(3-trifluoromethyl-pyridin-2-yloxy)-cyclohexyl]-amino}-thiophene-2-carboxylic acid] | 75.1%
7 | CC(C)(C)C#Cc1cc(N(C(=O)[C@H]2CC[C@H](C)CC2)[C@H]2CC[C@H](Oc3cccc(C(F)(F)F)n3)CC2)c(C(=O)O)s1 [Compound 17, 5-(3,3-Dimethyl-but-1-ynyl)-3-{(trans-4-methyl-cyclohexanecarbonyl)-[trans-4-(6-trifluoromethyl-pyridin-2-yloxy)-cyclohexyl]-amino}-thiophene-2-carboxylic acid] | 67.6%
8 | CC(C)(C)C#Cc1cc(N(C(=O)[C@H]2CC[C@H](C)CC2)[C@H]2C[C@@H](Oc3cccnc3)C2)c(C(=O)O)s1 [Compound 20, 5-(3,3-Dimethyl-but-1-ynyl)-3-{(trans-4-methyl-cyclohexanecarbonyl)-[cis-3-(pyridin-3-yloxy)-cyclobutyl]-amino}-thiophene-2-carboxylic acid] | 99.8%
9 | CC(C)(C)C#Cc1cc(N(C(=O)[C@H]2CC[C@H](C)CC2)[C@H]2C[C@H](Oc3cccnc3)C2)c(C(=O)O)s1 [Compound 21, 5-(3,3-Dimethyl-but-1-ynyl)-3-[(trans-4-methyl-cyclohexanecarbonyl)-{trans-3-(pyridin-3-yloxy)-cyclobutyl]-amino}-thiophene-2-carboxylic acid] | 98.8%
10 | CC(C)(C)C#Cc1cc(N(C(=O)[C@H]2CC[C@H](C)CC2)[C@H]2C[C@@H](Oc3ncccn3)C2)c(C(=O)O)s1 [Compound 22, 5-(3,3-Dimethyl-but-1-ynyl)-3-{(trans-4-methyl-cyclohexanecarbonyl)-[cis-3-(pyrimidin-2-yloxy)-cyclobutyl]-amino}-thiophene-2-carboxylic acid] | 96.2%
11 | CC(C)(C)C#Cc1cc(N(C(=O)[C@H]2CC[C@H](C)CC2)[C@H]2C[C@H](Oc3ncccn3)C2)c(C(=O)O)s1 [Compound 23, 5-(3,3-Dimethyl-but-1-ynyl)-3-{(trans-4-methyl-cyclohexanecarbonyl)-[trans-3-(pyrimidin-2-yloxy)-cyclobutyl]-amino}-thiophene-2-carboxylic acid] | 99.5%
12 | CC1CCC(C(=O)N(c2cc(C#CC(C)(C)C)sc2C(=O)O)[C@H]2CC[C@H](Oc3ccnc4ccccc34)CC2)CC1 (some centres unmarked) [Compound 25, 5-(3,3-Dimethyl-but-1-ynyl)-3-{(4-methyl-cyclohexanecarbonyl)-[4-(quinolin-4-yloxy)-cyclohexyl]-amino}-thiophene-2-carboxylic acid] | 99.3%
13 | CCc1cc(O[C@H]2CC[C@H](N(C(=O)C3CCC(C)CC3)c3cc(C#CC(C)(C)C)sc3C(=O)O)CC2)cc(CC)n1 (some centres unmarked) [Compound 26, 3-[[4-(2,6-diethyl-pyridin-4-yloxy)-cyclohexyl]-(4-methyl-cyclohexanecarbonyl)-amino]-5-(3,3-Dimethyl-but-1-ynyl)-thiophene-2-carboxylic acid] | 99.8%
14 | CC(C)(C)C#Cc1cc(N(C(=O)[C@H]2CC[C@H](C)CC2)[C@H]2CC[C@H](Oc3cc(CN4CCCC4)ccn3)CC2)c(C(=O)O)s1 [Compound 27, 5-(3,3-Dimethyl-but-1-ynyl)-3-{(trans-4-methyl-cyclohexanecarbonyl)-[trans-4-(4-pyrrolidin-1-ylmethyl-pyridin-2-yloxy)-cyclohexyl]-amino}-thiophene-2-carboxylic acid] | 100%
15 | CC1CCC(C(=O)N(c2cc(C#CC(C)(C)C)sc2C(=O)O)[C@H]2CC[C@H](Oc3cc(CN4CCOCC4)ccn3)CC2)CC1 (some centres unmarked) [Compound 28, 5-(3,3-Dimethyl-but-1-ynyl)-3-{(4-methyl-cyclohexanecarbonyl)-[4-(4-morpholin-4-ylmethyl-pyridin-2-yloxy)-cyclohexyl]-amino}-thiophene-2-carboxylic acid] | 99.7%
16 | CC1CCC(C(=O)N(c2cc(C#CC(C)(C)C)sc2C(=O)O)[C@H]2CC[C@H](Oc3cc(CN(C)C)ccn3)CC2)CC1 (some centres unmarked) [Compound 29, 3-[[-4-(4-dimethylaminomethyl-pyridin-2-yloxy)-cyclohexyl]-(4-methyl-cyclohexanecarbonyl)-amino]-5-(3,3-Dimethyl-but-1-ynyl)-thiophene-2-carboxylic acid] | 100%
17 | CC1CCC(C(=O)N(c2ccc(Oc3ccccn3)cc2)c2cc(C#CC(C)(C)C)sc2C(=O)O)CC1 (centres unmarked) [Compound 30, 5-(3,3-Dimethyl-but-1-ynyl)-3-{(4-methyl-cyclohexanecarbonyl)-[4-(pyridin-2-yloxy)-phenyl]-amino}-thiophene-2-carboxylic acid] | 70.7%
18 | C[C@@H](CCOc1cccnc1)N(c1cc(C#CC(C)(C)C)sc1C(=O)O)C(=O)[C@H]1CC[C@H](C)CC1 [Compound 58] | 99.9%
19 | C[C@@H](CCOc1ncccn1)N(c1cc(C#CC(C)(C)C)sc1C(=O)O)C(=O)[C@H]1CC[C@H](C)CC1 [Compound 59] | 99.9%
20 | C[C@@H](CCOc1ccccn1)N(c1cc(C#CC(C)(C)C)sc1C(=O)O)C(=O)[C@H]1CC[C@H](C)CC1 [Compound 60] | 97.5%
